Test results: ChEMBL document CHEMBL4706555, “Synthesis of biphenyl oxazole derivatives via Suzuki coupling and biological evaluations as nucleotide pyrophosphatase/phosphodiesterase-1 and -3 inhibitors” (Eur J Med Chem, 2020)

Key:
[1] = molecular target: T1, Ectonucleotide pyrophosphatase/phosphodiesterase family member 1 (Homo sapiens, UniProt P22413); experiment: Inhibition of human recombinant NPP1 expressed in COS-7 cell membrane […] using p-nitrophenyl thymidine monophosphate substrate incubated for 35 mins by spectrophotometric analysis; assay type: cell membranes
T1 sequence (P22413 whole entry): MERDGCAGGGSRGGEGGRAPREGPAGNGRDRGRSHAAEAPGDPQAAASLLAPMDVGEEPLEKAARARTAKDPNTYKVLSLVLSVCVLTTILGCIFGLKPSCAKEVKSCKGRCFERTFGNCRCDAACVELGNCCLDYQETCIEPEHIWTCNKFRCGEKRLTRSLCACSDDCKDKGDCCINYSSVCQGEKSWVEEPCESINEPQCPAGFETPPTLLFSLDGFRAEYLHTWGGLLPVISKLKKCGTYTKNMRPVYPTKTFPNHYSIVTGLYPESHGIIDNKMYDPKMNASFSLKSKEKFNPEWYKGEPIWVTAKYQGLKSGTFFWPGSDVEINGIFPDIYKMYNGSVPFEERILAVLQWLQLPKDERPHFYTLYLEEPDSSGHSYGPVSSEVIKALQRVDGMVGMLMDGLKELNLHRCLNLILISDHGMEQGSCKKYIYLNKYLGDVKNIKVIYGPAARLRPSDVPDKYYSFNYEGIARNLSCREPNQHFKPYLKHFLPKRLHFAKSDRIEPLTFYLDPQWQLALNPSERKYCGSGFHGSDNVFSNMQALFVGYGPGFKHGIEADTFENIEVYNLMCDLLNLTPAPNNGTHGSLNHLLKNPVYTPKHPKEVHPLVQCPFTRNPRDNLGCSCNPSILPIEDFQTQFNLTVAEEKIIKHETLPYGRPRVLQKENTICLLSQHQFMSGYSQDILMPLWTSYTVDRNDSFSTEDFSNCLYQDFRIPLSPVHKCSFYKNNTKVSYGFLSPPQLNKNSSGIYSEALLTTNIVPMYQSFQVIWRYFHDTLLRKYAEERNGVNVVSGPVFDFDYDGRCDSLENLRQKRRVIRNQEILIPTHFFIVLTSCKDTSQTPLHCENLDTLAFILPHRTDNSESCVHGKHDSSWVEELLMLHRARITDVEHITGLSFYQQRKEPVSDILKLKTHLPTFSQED

[2] = molecular target: T2, Ectonucleotide pyrophosphatase/phosphodiesterase family member 3 (Homo sapiens, UniProt O14638); experiment: Inhibition of human recombinant NPP3 expressed in COS-7 cell membrane […] using p-nitrophenyl thymidine monophosphate substrate incubated for 35 mins by spectrophotometric analysis; assay type: cell membranes
T2 sequence (O14638 whole entry): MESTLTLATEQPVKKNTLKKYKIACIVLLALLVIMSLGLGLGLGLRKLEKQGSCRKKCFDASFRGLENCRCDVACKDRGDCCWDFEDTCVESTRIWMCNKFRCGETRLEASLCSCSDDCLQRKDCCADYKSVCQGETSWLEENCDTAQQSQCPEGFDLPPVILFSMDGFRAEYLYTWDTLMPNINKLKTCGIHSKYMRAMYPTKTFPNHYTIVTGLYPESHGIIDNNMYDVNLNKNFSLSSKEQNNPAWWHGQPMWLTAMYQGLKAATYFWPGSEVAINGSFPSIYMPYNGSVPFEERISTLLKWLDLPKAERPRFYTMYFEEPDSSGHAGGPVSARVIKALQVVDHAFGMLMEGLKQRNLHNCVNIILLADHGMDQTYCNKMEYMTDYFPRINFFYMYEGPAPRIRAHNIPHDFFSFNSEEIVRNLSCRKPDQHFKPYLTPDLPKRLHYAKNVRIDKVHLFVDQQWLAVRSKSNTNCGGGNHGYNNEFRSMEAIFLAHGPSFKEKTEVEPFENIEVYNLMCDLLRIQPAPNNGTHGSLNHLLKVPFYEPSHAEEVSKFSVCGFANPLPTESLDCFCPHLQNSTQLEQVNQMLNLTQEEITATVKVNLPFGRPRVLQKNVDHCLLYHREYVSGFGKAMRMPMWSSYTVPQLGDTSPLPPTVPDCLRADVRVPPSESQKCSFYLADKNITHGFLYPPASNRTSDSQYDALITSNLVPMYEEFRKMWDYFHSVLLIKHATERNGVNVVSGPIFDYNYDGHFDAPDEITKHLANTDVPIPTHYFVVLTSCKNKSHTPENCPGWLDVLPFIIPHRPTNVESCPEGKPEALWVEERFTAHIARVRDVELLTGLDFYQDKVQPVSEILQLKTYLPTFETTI

[3] = molecular target: T3, Ectonucleotide pyrophosphatase/phosphodiesterase family member 1 (Homo sapiens) (UniProt P22413); experiment: Inhibition of human recombinant NPP1 expressed in COS-7 cell membrane using p-nitrophenyl thymidine monophosphate substrate incubated for 35 mins by spectrophotometric analysis; assay type: cell membranes; parameters: concentration or dose not given beside the values
T3 sequence (whole entry): T1 sequence (P22413 whole entry)

[4] = molecular target: Ectonucleotide pyrophosphatase/phosphodiesterase family member 3 (Homo sapiens) (UniProt O14638); experiment: Inhibition of human recombinant NPP3 expressed in COS-7 cell membrane using p-nitrophenyl thymidine monophosphate substrate incubated for 35 mins by spectrophotometric analysis; parameters: concentration or dose not given beside the values
[5] = molecular target: T3, Ectonucleotide pyrophosphatase/phosphodiesterase family member 1 (Homo sapiens); experiment: Potency index, ratio of IC50 for suramin to IC50 for test compound for human recombinant NPP1 expressed in COS-7 cell membrane using p-nitrophenyl thymidine monophosphate substrate incubated for 35 mins by spectrophotometric analysis; assay type: cell membranes
[6] = molecular target: T4, Ectonucleotide pyrophosphatase/phosphodiesterase family member 3 (Homo sapiens) (UniProt O14638); experiment: Potency index, ratio of IC50 for suramin to IC50 for test compound for human recombinant NPP3 expressed in COS-7 cell membrane using p-nitrophenyl thymidine monophosphate substrate incubated for 35 mins by spectrophotometric analysis; assay type: cell membranes
T4 sequence (whole entry): T2 sequence (O14638 whole entry)

| Structure (SMILES) | IC50 [1] | IC50 [2] | inhibition [3] | inhibition [4] | also measured |
| --- | --- | --- | --- | --- | --- |
| CCOc1ccccc1-c1nc(-c2ccc(-c3ccc(C)cc3)cc2)co1 | 9230 nM | 11100 nM | – | – | – |
| CCOc1ccccc1-c1nc(-c2ccc(-c3ccccc3)cc2)co1 | – | – | 27% | 48% | – |
| Cc1cccc(-c2ccc(-c3coc(-c4ccccc4-c4cccc(C)c4)n3)cc2)c1 | – | 2210 nM | 36% | – | – |
| c1ccc(-c2ccc(-c3coc(-c4ccccc4-c4ccccc4)n3)cc2)cc1 | – | – | 33% | 47% | – |
| Cc1nc(-c2ccc(-c3ccc(OCc4ccccc4)cc3)cc2)co1 | 1440 nM | 1310 nM | – | – | – |
| Cc1ccccc1-c1ccc(-c2coc(-c3ccccc3)n2)cc1 | 420 nM | 4230 nM | – | – | – |
| COc1ccc(-c2ccc(-c3coc(C)n3)cc2)cc1 | – | 170 nM | 38% | – | Ratio IC50 [6]: 5.3 |
| Cc1nc(-c2ccc(-c3cccc4ccccc34)cc2)co1 | 2410 nM | 150 nM | – | – | – |
| c1ccc(-c2nc(-c3ccc(-c4cccc5ccccc45)cc3)co2)cc1 | – | – | 44% | 43% | – |
| c1ccc(-c2ccc(-c3coc(-c4ccccc4)n3)cc2)cc1 | – | – | 31% | 49% | – |
| COc1ccc(-c2ccc(-c3coc(-c4ccccc4)n3)cc2)cc1 | 17200 nM | 3730 nM | – | – | – |

Further lines, with some results ahead:

| IC50 [1] | IC50 [2] | inhibition [3] | inhibition [4] | Structure (SMILES) | also measured |
| --- | --- | --- | --- | --- | --- |
| 150 nM | – | – | 40% | CCOc1ccccc1-c1nc(-c2ccc(-c3cccc4ccccc34)cc2)co1 | Ratio IC50 [5]: 51.8 |
| – | – | 48% | – | Cc1cccc(-c2ccc(-c3coc(-c4ccccc4)n3)cc2)c1 | – |
| – | – | 46% | 43% | Cc1nc(-c2ccc(-c3ccccc3)cc2)co1 | – |
| 2560 nM | 5060 nM | – | – | Cc1ccc(-c2ccc(-c3coc(C)n3)cc2)cc1 | – |
| – | 1700 nM | 43% | – | Cc1cccc(-c2ccc(-c3coc(C)n3)cc2)c1 | – |
| – | – | 40% | 45% | Cc1nc(-c2ccc(-c3ccccc3C)cc2)co1 | – |
